Experimental data taken from patent publication US20240350443A1, “COMPOSITION, FORMULATION, PREPARATION METHOD AND USE FOR GLUTATHIONE PRECURSOR” (priority 2021, published 2024).
Marks after values point to notes of the source that are not given here.

How the values were obtained:
Type in all cases: in vivo, Kunming mice
aged mice = test: Oxidation resistance function experiment in aged mice; conditions: x ± s, n = 13
Excerpt: In the experiment, the oxidation resistance effect of the composition was researched by detecting four indicators of MDA, protein carbonyl, antioxidant enzyme activity (GSH-PX or SOD) and reduced GSH content. If three of the four indicators were positive, the composition could be determined to have the oxidation resistance effect.
Test animals were as follows: male SPF-grade Kunming mice aged over 10 months, with body weights of 40-60 g, available from Hubei Provincial Laboratory Animal Public Service Center, Hubei, China [certification No.: SCXK (E) 2020-0018].
The experimental method was as follows: 104 mice were randomly divided into 8 groups, namely, a negative control group and experimental groups 1-7 (i.e., the formula of the test samples adopted the formula of the above experimental groups 1-7), with 13 mice in each group.
Distilled water was given to the blank control group, corresponding test substances (the dose of acetylcysteine or cysteine agent in each test substance was 500 mg/kg BW) were given to each experimental group, and the intragastric capacity was 20 mL/kg BW. After 30 days of continuous intragastric administration, blood was sampled from the inner canthus of each group of animals, a hemolysate was prepared, and the MDA content and the glutathione peroxidase (GSH-PX) activity were detected; the animals were sacrificed and the livers were taken as homogenates, 10% liver homogenates were prepared for reduced GSH and protein carbonyl determination, and 1% liver homogenates were prepared for superoxide dismutase (SOD) activity determination. Each detection kit was available from NanJing JianCheng Bioengineering Institute.

alcoholic liver damage [1] = test: Liver protection function experiment: MDA, reduced GSH and TG in liver homogenates
Excerpt: In the experiment, the auxiliary protection effect of the composition of the present disclosure on alcoholic liver damage was researched by detecting three indicators of liver malondialdehyde (MDA) content, reduced glutathione (GSH) and triglyceride (TG) and histopathologic examination (wherein the lower the MDA and TG contents were, the higher the GSH content was, the better the liver protection effect was). If the three indicators of the liver MDA, the reduced GSH and the TG were positive, or any two of the three indicators of the liver MDA, the reduced GSH and the TG were positive and the histopathological examination result was positive, the composition could be determined to have the auxiliary protection effect on alcoholic liver damage.
Test animals were as follows: male SPF-grade Kunming mice aged 5 to 6 weeks, with body weights of 18-22 g, available from Hubei Provincial Laboratory Animal Public Service Center, Hubei, China [certification No.: SCXK (E) 2020-0018].
The experimental method was as follows: 117 mice were randomly divided into 9 groups, namely a blank control group, a model control group and experimental groups 1-7 (the formula of the test samples was referred to the formula of the experimental groups 1-7), with 13 mice in each group.
Distilled water was given to the blank control group and the model control group, corresponding test substances (the dose of acetylcysteine or cysteine agent in each test substance was 500 mg/kg BW) were given to each experimental group according to the formula, and the intragastric capacity was 20 mL/kg BW. On day 30 of the experiment, the mice of the model control group and each experimental group were intragastrically administered with 14 mL/kg BW of 50% ethanol once, and distilled water with equal volume was given to the blank control group, and then the mice were fasted for 16 hours. The mice were sacrificed by cervical dislocation after weighing.
0.5 g of liver was taken and added with normal saline to prepare a liver homogenate, and then the MDA, reduced GSH and TG were detected. The detection method and the calculation method for the MDA and reduced GSH were described according to the instruction of a kit from NanJing JianCheng Bioengineering Institute, and the TG was detected by using the Beckman Coulter AU680 Chemistry Analyzer.

immune system of mice = test: Immunity enhancement function, overall determination; conditions: any two of four aspects positive
humoral immune function = test: Humoral immune function: antibody-producing cells and serum hemolysin level; conditions: mice; 500 mg/kg BW intragastric; x ± s, n = 10
Excerpt: (§1) In the experiment, the effect of the composition on the immune system of mice was researched from four aspects of cellular immune function, humoral immune function, monocyte-macrophage function and NK cell activity.
(§2) Test animals were as follows: male SPF-grade Kunming mice aged 4 weeks, with body weights of 18-22 g, available from Hubei Provincial Laboratory Animal Public Service Center, Hubei, China [certification No.: SCXK (E) 2020-0018].
(§3) The experimental method was as follows: 400 mice were randomly divided into 5 groups, with 80 mice in each group, and each group was subjected to 5 kinds of immunoassays including body weight and organ/body ratio measurement, cellular immune function measurement, humoral immune function measurement, monocyte-macrophage function measurement, and NK cell activity measurement. For each immunoassay, 80 mice were tested and divided into 8 groups, namely a negative control group and experimental groups 1-7, with 10 mice in each group; distilled water was given to the negative control group, corresponding test substances (the dose of acetylcysteine or cysteine agent in each test substance was 500 mg/kg BW) were given to each experimental group, and the intragastric capacity was 20 mL/kg BW.

alcoholic liver damage [2] = test: Liver protection function experiment: liver histopathology score (lipid droplets); conditions: alcoholic liver damage mice; score 0-4 points per field; x ± s, 13 mice
Procedure: Distilled water was given to the blank control group and the model control group, corresponding test substances (the dose of acetylcysteine or cysteine agent in each test substance was 500 mg/kg BW) were given to each experimental group according to the formula, and the intragastric capacity was 20 mL/kg BW. On day 30 of the experiment, the mice of the model control group and each experimental group were intragastrically administered with 14 mL/kg BW of 50% ethanol once, and distilled water with equal volume was given to the blank control group, and then the mice were fasted for 16 hours. The mice were sacrificed by cervical dislocation after weighing. […]
The areas of the fields of view occupied by various lesions in each field of view were respectively recorded, and the total lesion scores of the observed fields of view were accumulated. […]

[3] = system: mouse peritoneal macrophages; test: Phagocytosis of chicken erythrocytes by mouse peritoneal macrophages; conditions: x ± s, n = 10
Excerpt: as §1, §2, §3

[4] = 10% liver homogenates of aged mice, 30 days
[5] = alcoholic liver damage mice, 500 mg/kg BW acetylcysteine or cysteine intragastric, 30 days, x ± s, 13 mice

With `CC(=O)N[C@@H](CS)C(=O)O` [Experimental group 1, N-acetylcysteine] the SOD (aged mice; 1% liver homogenates of aged mice, 30 days) was 338.4 ± 44.9^bc U/mgprot, the MDA (aged mice; 2% hemolysates of aged mice, 500 mg/kg BW intragastric 30 days) was 17.88 ± 2.55^bc nmol/ml and the GSH (aged mice; [4]) was 30.05 ± 6.08^a mg/gprot. For the same molecule, the Protein carbonyl (aged mice; [4]) was 1.33 ± 0.35^ab nmol/mgprot, the GSH-PX (aged mice; hemolysate of aged mice, 30 days) was 585.2 ± 24.2^a U/ml and the “Auxiliary protection effect on alcoholic liver damage (determination)” value (alcoholic liver damage [1]; Technical Specification for Inspection and Evaluation of Health Food (2003 edition)) was “had an auxiliary protection effect on alcoholic liver damage”. The “MDA in liver homogenates” value (alcoholic liver damage [1]; [5]) was 0.98 ± 0.28^bc nmol/mgprot, the “Reduced GSH in liver homogenates” value (alcoholic liver damage [1]; [5]) was 34.55 ± 9.48^bc mg/gprot and the “TG in liver homogenates” value (alcoholic liver damage [1]; [5]) was 1.52 ± 0.64^bc mmol/L. The “Immunity enhancement effect (determination)” value (immune system of mice) was “had the immunity enhancement effect”, the “Number of hemolytic plaques (N)/number of whole splenocytes” value (humoral immune function) was 161.71 ± 11.52^c and the “Liver histopathology score (fatty degeneration of hepatocytes)” value (alcoholic liver damage [2]) was 1.46 ± 1.05^bc. For the same molecule, the “Phagocytic rate, phagocytosis of chicken erythrocytes” value [3] was 33.88 ± 2.48^b %.
